The nature of assay [1]: Binding affinity to Precursor microRNA-515 (unknown origin) assessed as dissociation constant.
Assay [2] is described as follows: Binding affinity to telomeric RNA (unknown origin) assessed as dissociation constant.
Assay [3] has as its system Human immunodeficiency virus 1. The experiment in a line: Antiviral activity against HIV-1. Format: functional, organism-based.
Assay [4] is described as follows: Binding affinity to HIV-1 mRNA assessed as dissociation constant. The arrangement: species or system Human immunodeficiency virus 1.
The nature of assay [5]: Binding affinity to Precursor microRNA-96 (unknown origin) assessed as dissociation constant.
The nature of assay [6]: Binding affinity to DNA hairpin (unknown origin) assessed as dissociation constant.
A short description of assay [7]: Inhibition of Precursor microRNA-96 (unknown origin) relative to control. The conditions noted are these: concentration not given here.
For the next assay, the system named is MCF7. The experiment in a line: Induction of apoptosis in human MCF7 cells at 100 uM. In kind it is functional.
The test system of another assay is U-251. The experiment in a line: Induction of apoptosis in human U-251 cells at 100 uM. Format: functional.
Assay [8] is described as follows: Effect on tau protein expression in human SH-SY5Y cells. In kind it is functional, cell-based.
Assay [9] is described as follows: Downregulation of alpha-Synuclein level in human SH-SY5Y cells at 1 uM relative to control. In kind it is functional.
A short description of assay [10]: Binding affinity to Precursor microRNA-210 (unknown origin) assessed as dissociation constant.
For another assay, the system named is MDA-MB-231. The experiment in a line: Inhibition of Precursor microRNA-210 in human MDA-MB-231 cells at 200 nM relative to control. Format: cell-based.
The test system of assay [11] is Human immunodeficiency virus 1. The experiment in a line: Antiviral activity against HIV-1 infected in human T cell line assessed as inhibition of DNA replication. Format: functional, organism-based. The note with it: Human immunodeficiency virus 1, T-cell.
The next assay concerns HeLa. In words: Cytotoxicity against human HeLa cells. Format: functional.
Assay [12] has as its target T1, Microtubule-associated protein tau (Homo sapiens, UniProt P10636). The experiment in a line: Binding affinity to tau (unknown origin).
Assay [13] addresses T1, Microtubule-associated protein tau. In words: Inhibition of tau (unknown origin).
The target is the same in assay [14]. The experiment in a line: Inhibition of tau in human LA-N-5 cells assessed as reduction in 4R/3R ratio. In kind it is cell-based. The note with it: concentration not given here.
Assay [15] has as its target Microtubule-associated protein tau (Rattus norvegicus) (UniProt P19332). In words: Inhibition of tau in rat Primary cortical neuron cell assessed as reduction in 4R/3R ratio. In kind it is cell-based. The note with it: concentration not given here.
A short description of assay [16]: Binding affinity to r(CCUG)12 (unknown origin) assessed as dissociation constant.
Assay [17] can be described thus: Inhibition of r(CCUG)12-MBNL1 (unknown origin) by gel electrophoretic mobility shift assay. The arrangement: species or system Homo sapiens. A general note: Mobility shift assays separate free from complexed probe on a gel.
The target of assay [18] is T2, Muscleblind-like protein 1 (Homo sapiens, UniProt Q9NR56).
T2 sequence (Q9NR56 whole entry): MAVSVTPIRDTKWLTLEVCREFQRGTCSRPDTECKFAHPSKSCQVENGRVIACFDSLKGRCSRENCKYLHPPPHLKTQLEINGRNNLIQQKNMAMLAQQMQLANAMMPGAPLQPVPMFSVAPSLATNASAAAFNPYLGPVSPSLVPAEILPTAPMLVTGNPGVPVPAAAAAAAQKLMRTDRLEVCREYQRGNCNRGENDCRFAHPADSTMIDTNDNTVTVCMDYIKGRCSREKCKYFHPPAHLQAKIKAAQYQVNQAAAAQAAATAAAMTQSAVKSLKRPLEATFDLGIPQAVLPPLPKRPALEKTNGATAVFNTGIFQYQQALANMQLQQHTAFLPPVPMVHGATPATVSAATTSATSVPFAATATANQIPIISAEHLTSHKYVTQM
The experiment in a line: Binding affinity to MBNL1 (unknown origin) assessed as dissociation constant.

A short description of assay [19]: Inhibition of miR-18a (unknown orgin) production.
Assay [20] is described as follows: Binding affinity to miR-18a (unknown orgin) assessed as dissociation constant.
In assay [21] the test system is Escherichia coli. In words: Antibacterial activity against Escherichia coli MB5746. Format: functional, organism-based.
The test system of assay [22] is Escherichia coli. In words: In vivo antibacterial activity against Escherichia coli MB5746 infected in DBA/2J mouse assessed as log 10 reduction in CFU in spleen at 60 mg/kg, sc administered every 3 hrs for 24 hrs (reference value: 9.53 log10 CFU). In kind it is functional.
The test system of assay [23] is Escherichia coli. The experiment in a line: In vivo antibacterial activity against Escherichia coli MB5746 infected in DBA/2J mouse assessed as log 10 reduction in CFU in spleen at 120 mg/kg, sc administered every 3 hrs for 24 hrs (reference value: 9.53 log10 CFU). Format: functional.

The structures appear in SMILES notation.

As usually defined, the Kd is the constant that tells how readily two partners part at equilibrium. What is called IC50 is the concentration at which inhibition is half-maximal. By inhibition is commonly meant the share of the control response that was lost under treatment. What is called EC50 is the midpoint of the concentration-response curve.

T1 sequence (P10636 whole entry): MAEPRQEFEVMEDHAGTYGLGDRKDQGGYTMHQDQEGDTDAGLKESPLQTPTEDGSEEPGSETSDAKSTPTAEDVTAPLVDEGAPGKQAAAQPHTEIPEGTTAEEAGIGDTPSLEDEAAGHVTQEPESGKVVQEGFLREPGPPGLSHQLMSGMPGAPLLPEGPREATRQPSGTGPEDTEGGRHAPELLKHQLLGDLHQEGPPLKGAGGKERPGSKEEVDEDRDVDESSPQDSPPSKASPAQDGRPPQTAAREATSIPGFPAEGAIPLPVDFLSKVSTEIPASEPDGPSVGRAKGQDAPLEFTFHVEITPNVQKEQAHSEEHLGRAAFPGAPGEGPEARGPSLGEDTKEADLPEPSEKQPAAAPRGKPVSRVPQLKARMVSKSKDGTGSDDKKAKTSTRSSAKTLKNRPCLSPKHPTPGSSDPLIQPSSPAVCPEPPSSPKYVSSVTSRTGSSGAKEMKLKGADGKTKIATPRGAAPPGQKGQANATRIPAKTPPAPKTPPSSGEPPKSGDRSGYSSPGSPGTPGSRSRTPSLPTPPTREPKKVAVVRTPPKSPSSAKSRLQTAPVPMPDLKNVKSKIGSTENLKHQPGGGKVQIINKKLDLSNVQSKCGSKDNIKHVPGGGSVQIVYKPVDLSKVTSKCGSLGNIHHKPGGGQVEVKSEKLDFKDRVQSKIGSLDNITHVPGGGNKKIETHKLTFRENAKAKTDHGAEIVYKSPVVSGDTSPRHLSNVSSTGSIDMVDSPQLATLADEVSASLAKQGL
Sequence of Microtubule-associated protein tau (Rattus norvegicus) (P19332 whole entry): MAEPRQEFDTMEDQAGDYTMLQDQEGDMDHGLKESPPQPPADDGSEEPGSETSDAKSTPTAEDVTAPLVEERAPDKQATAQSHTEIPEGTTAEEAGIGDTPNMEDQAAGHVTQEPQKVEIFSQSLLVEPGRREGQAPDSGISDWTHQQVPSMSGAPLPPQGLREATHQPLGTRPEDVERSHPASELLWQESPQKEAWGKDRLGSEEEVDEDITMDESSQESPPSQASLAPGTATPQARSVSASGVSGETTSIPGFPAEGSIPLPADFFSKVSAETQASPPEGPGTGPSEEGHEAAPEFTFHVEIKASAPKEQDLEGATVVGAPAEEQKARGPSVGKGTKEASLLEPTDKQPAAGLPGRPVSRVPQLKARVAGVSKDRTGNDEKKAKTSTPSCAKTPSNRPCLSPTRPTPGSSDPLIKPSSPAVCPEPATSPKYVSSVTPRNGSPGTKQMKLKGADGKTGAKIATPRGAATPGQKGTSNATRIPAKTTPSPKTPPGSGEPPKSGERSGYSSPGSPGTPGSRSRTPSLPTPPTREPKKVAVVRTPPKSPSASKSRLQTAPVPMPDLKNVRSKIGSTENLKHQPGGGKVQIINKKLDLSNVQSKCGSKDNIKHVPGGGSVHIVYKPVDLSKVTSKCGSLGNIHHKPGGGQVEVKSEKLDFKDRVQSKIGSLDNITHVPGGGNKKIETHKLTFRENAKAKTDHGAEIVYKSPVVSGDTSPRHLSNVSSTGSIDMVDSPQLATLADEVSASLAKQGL

As for `CCCN(CC(=O)N(CCC)CC(=O)N(CCC)CC(=O)N(CCC)CC(=O)N(CC(N)=O)Cc1cn(CCCNC(=O)CCCOc2c(C(C)(C)C)cc(-c3nc4ccc(-c5ccc(N6CCN(C)CC6)cc5)cc4[nH]3)cc2C(C)(C)C)nn1)C(=O)CNCc1cn(CCCNC(=O)CCCOc2c(C(C)(C)C)cc(-c3nc4ccc(-c5ccc(N6CCN(C)CC6)cc5)cc4[nH]3)cc2C(C)(C)C)nn1`, the Kd in assay [1] worked out at 0.06 µM.

In the case of `O=c1c2cc(-c3ccco3)sc2nc2n1Cc1nc3sc(-c4ccco4)cc3c(=O)n1C2`, the Kd in assay [2] was 5.9 µM.

For `CC(=O)Nc1nc(CC(=O)c2cccc(NC(=O)[C@@H](N)CCCCNC(=N)N)c2)cs1`, in [3], half-maximal inhibition (IC50) required 0.41 µM. Moreover, the Kd in [4] turned out to be 0.11 µM.

Consider `CCCN(CC(=O)N(CCC)CC(=O)N(CC(N)=O)Cc1cn(CCCNC(=O)CCCOc2c(C(C)(C)C)cc(-c3nc4cc(N5CCN(C)CC5)ccc4[nH]3)cc2C(C)(C)C)nn1)C(=O)CCCOc1cccc(-c2nc3ccc(-c4nc5ccc(N6CCN(C)CC6)cc5[nH]4)cc3[nH]2)c1`, for which the Kd in assay [5] was 0.085 µM; in assay [6], more than 50 µM. The molecule also showed an inhibition in assay [7] of 50%.

Take `NC(=O)c1ncn2c(=O)n(NC(=O)c3nc4c(N)cccc4[nH]3)nnc12`: the Activity in the assay on MCF7 and in the assay with U-251 was 30% in each case.

For `N=C(N)NC[C@H]1O[C@H](O[C@@H]2[C@@H](OCCSSCCNCCNc3ccc(NCCNCCO)c4c3C(=O)c3ccccc3C4=O)[C@H](O)[C@@H](NC(=N)N)C[C@H]2NC(=N)N)[C@H](NC(=N)N)[C@@H](O)[C@@H]1O`, the EC50 in assay [8] was found to be 0.0572 µM.

In the case of `N=C(N)c1ccc(Nc2ccc(-c3cc4ccc(C(=N)N)cc4[nH]3)cc2)cc1`, the Activity in [9] worked out at 67%.

As to `CN1CCN(c2ccc3nc(-c4ccc(OCCCC(=O)NCCCOCC(O)COP(=O)(O)O[C@@H]5[C@H](O)[C@@H](COP(=O)(O)O[C@@H]6[C@H](O)[C@@H](COP(=O)(O)O[C@@H]7[C@H](O)[C@@H](COP(=O)(O)O[C@@H]8[C@H](O)[C@@H](COP(=O)(O)O)O[C@H]8n8cnc9c(N)ncnc98)O[C@H]7n7cnc8c(N)ncnc87)O[C@H]6n6cnc7c(N)ncnc76)O[C@H]5n5cnc6c(N)ncnc65)cc4)[nH]c3c2)CC1` (some centres not stated), in assay [10], the Kd amounted to 0.34 µM. Further, the inhibition in the assay with MDA-MB-231 came out at 50%.

For the molecule `O=C1c2c(O)ccc(O)c2C(=O)c2c(NCCNCCO)ccc(NCCNCCO)c21` [MITOXANTRONE], the 50% inhibitory concentration (IC50) in [11] worked out at 23.1 µM. This molecule had an Activity in the assay on HeLa of 1 µM.

Molecule `COc1ccc2[nH]c3c(c2c1)N=CN(CCCN(C)C1CCCCC1)C3` had a Kd in [12] of 4.9 µM. In assay [13], this molecule came in with a concentration for half-maximal inhibition (IC50) of 2.1 µM. Moreover, the inhibition in [14] stood at 40%; in assay [15] it was 50%.

Take `N=C(NCCCCNc1nc(N)nc(N)n1)c1ccc(C(=N)NCCCCNc2nc(N)nc(N)n2)cc1`: the values for the Kd in assay [16] and in assay [18] were 8 µM and more than 200 µM, respectively. The IC50 in [17] was 115 µM.

Consider `CN1CCN(c2ccc(-c3ccc4nc(-c5cc(C(C)(C)C)c(OCCCC(=O)NCCCN=[N+]=[N-])c(C(C)(C)C)c5)[nH]c4c3)cc2)CC1`, for which the IC50 in [19] stood at 10 µM. The Kd in assay [20] came to 32 µM.

`CNc1ncc(CN2CCCC(c3nc(O)cc(-c4cccs4)n3)C2)cn1` (configuration not stated) displayed an IC50 in the assay with Escherichia coli [21] of 0.3 µM. In addition, the values for the Activity in the assay with Escherichia coli [22] and with Escherichia coli [23] were 7.76 log10CFU/g and 6.24 log10CFU/g, respectively.

Values taken from ChEMBL document CHEMBL5226309, “Synthetic RNA Modulators in Drug Discovery” (J Med Chem, 2021).
